The target in data set [1] is T1, mTLR3 (Mus musculus, UniProt Q99MB1).
T1 construct: reduction in TNF-α secretion in mouse RAW 264.7 cells; endogenous in cells; host or cells: RAW 264.7
As to the kind of experiment: TLR3 inhibition, poly I:C-induced mTNFα in RAW 264.7. The class given is cell-based. How it is done:
(§1) RAW 264.7 and differentiated THP-1 cells were seeded into 96-well plates at 2 × 10^4 cells per well, while Daudi cells were seeded at 5 × 10^4 cells per well. After stabilization for 30 min, cells were stimulated with specific TLR agonists for 4 or 24 h. Supernatants were diluted and transferred to precoated ELISA plates to measure TNF-α secretion using kits from Invitrogen. Optical absorbance was measured using a BioTek Synergy HTX multimode microplate reader, and data were interpolated using BioTek Gen5 software.
One-tailed paired Student’s t-tests were performed using Microsoft Excel (Microsoft). Semi-logarithmic conversions and nonregression curve analyses for calculating 50% lethal concentration (LC50) and 50% inhibitory concentration (IC50) values were conducted using GraphPad Prism 7.0 (GraphPad). The therapeutic index was calculated as […]. Animal experimental results are expressed as mean ± standard deviation and analyzed using SPSS v.20 (IBM SPSS Statistics). Homogeneity of variance was assessed using Levene’s test. […]

In data set [2] the test system is IL-23-induced psoriasis. Nature of the data set: IL-23-induced psoriasis in mice. The data set is classed as in vivo, mouse. The conditions noted are these: 60 mg/kg oral daily; for Improvement of disease symptoms: versus anti-IL-17A antibody IP. How it is done: Six-week-old female C57BL/6J mice were assigned to the following treatment groups: vehicle (n = 5), IMQ (n = 5), ETI41 (n = 4) and ETI60 (n = 5). The mice were obtained from Orient Bio to evaluate the effects of ETI41 and ETI60 on induced psoriasis-like symptoms. This study was approved by the Institutional Animal Care and Use Committee (IACUC; approval no. 2014-0007). Psoriasis was induced using Aldara cream (3M Pharmaceuticals), which was applied topically at 62.5 mg/cm² daily from the day after hair removal until the fourth day. Mice were orally administered 60 mg/kg ETI41 or ETI60 daily commencing on the second day of induction. For IL-23-induced psoriasis, the mice were assigned to the following treatment groups: vehicle (n = 5), IL-23 (n = 5), ETI41 (n = 5), ETI60 (n = 5) and anti-IL-17 Ab (n = 5). Recombinant mouse IL-23 (0.25 mg/kg; BioLegend) was administered via intradermal injection around the ear daily, starting the day after hair removal and continuing until the eighth day. Positive control mice received intraperitoneal (IP) injections of 30 mg/kg anti-mouse IL-17A antibody (BioLegend) on days 2, 5 and 8, while test group mice were administered daily oral doses of 60 mg/kg of ETI41 or ETI60. Changes in body weight and Psoriasis Area and Severity Index (PASI) scores (erythema, scaling and thickness) were recorded daily. Mice were initially anesthetized in an induction chamber with a gas mixture of 4% isoflurane in 70:30 […] and O2, delivered at a flow rate of 0.8 l/min. Subsequently, the isoflurane concentration was reduced to 2%, and the mice were euthanized under anesthesia via endotracheal intubation. Skin samples were collected, fixed and stained with hematoxylin and eosin for histological analysis. Dermal and epidermal thicknesses were measured using a Leica DMi8 microscope (Leica). Immunohistochemical analyses were performed using primary antibodies against CD68 (R&D Systems, MAB101141), Ki-67 (Cell Signaling Technology, 12202), IL-17A (Novus Biologicals, NBP1-72027) and IL-23 (Novus Biologicals, NBP1-76697), followed by detection using biotinylated secondary antibodies (Vector Laboratories) and diaminobenzidine (Vector Laboratories) visualization. Fluorescence measurements for IL-23-induced psoriasis were performed using primary antibodies against CD68 and Ki-67, followed by Alexa Fluor-conjugated secondary antibodies (Life Technologies). Fluorescence was analyzed using a Leica DMi8 microscope.
Anti-IL17A antibody (Ab, 60 µg) was administered by IP injection as a positive control on days 2, 5 and 8. […] CD68 and Ki-67 expression patterns were determined in skin sections from a representative of each group using immunofluorescence. i Ear skin and epidermis thickness, CD68 expression and percentage of Ki-67 cells were examined from 4’,6-diamidino-2-phenylindole-stained cells. Statistical differences between the induced case and other cases were analyzed and verified using a one-tailed Student’s t-test (*P < 0.05, **P < 0.01, ***P < 0.001).
Next, we investigated the therapeutic efficacy of ETI41 and ETI60 in an IL-23-induced mouse model of psoriasis. Psoriasis was induced through intradermal injections of recombinant murine IL-23. As a positive control, an IL-17A antibody was administered intraperitoneally at a dose of 30 mg/kg on days 2, 5 and 8 (Fig. 4f). ETI41 or ETI60 was orally administered daily at a dose of 60 mg/kg. […] These findings indicate that ETI41 and ETI60 effectively alleviate the progression of psoriasis, either through direct involvement of TLR7 or through an indirect involvement of the IL-23–Th17 axis.

Data set [3] concerns TLR1/TLR2. Nature of the data set: Surface TLR specificity, TNF-α secretion in differentiated THP-1. The class given is cell-based, human. The conditions noted are these: 2 and 5 μM, differentiated THP-1, FSL-1. As to the method:
as §1
(§2) The cells were activated with agonistic ligands: […], TLR3 (poly I:C, 2 μg/ml, 24 h), TLR4 (LPS, 10 or 100 ng/ml, 4 h), TLR5 (FLA-ST, 500 ng/ml, 4 h), TLR7 (ORN06/LyoVec, 2 μg/ml, 24 h; and IMQ, 1 μg/ml, 4 h), TLR8 (TL8-506, 2 μg/ml, 24 h) and TLR9 (ODN2395, 1 μM, 4 h) at various concentrations in RAW 264.7 cells, human Daudi cells and THP-1 cells. Data are from at least three independent experiments (n = 3) and statistical differences between the induced case and other cases were analyzed and verified using a one-tailed Student’s t-test (*P < 0.05, **P < 0.01, ***P < 0.001).
(§3) Given the structural similarities among TLR family proteins, achieving high selectivity is challenging. We tested the effects of ETI41 and ETI60 on various surface TLRs to determine their specificity. […] TLRs activate transcription factors, including NF-κB, MAPKs, c-Jun N-terminal kinase (JNK), extracellular signal-regulated kinase (ERK) and IRF7, which regulate cellular functions such as proliferation and apoptosis. Western blot analysis confirmed that ETI41 and ETI60 inhibited IMQ- or ODN2395-induced phosphorylation of MAPKs (p-ERK, p-JNK and p-p38), nuclear translocation of the NF-κB p65 subunit, Iκ-Bα degradation and IRF7 expression in RAW 264.7 cells (Fig. 2a–c and Supplementary Figs. 2 and 3).

Data set [4] has as its system TLR2/TLR6. The description is as above. The data set is classed as cell-based, human. The conditions noted are these: 2 and 5 μM, differentiated THP-1, Pam3CSK4. How it is done:
as §1, §2, §3

T1 sequence (Q99MB1 26-905): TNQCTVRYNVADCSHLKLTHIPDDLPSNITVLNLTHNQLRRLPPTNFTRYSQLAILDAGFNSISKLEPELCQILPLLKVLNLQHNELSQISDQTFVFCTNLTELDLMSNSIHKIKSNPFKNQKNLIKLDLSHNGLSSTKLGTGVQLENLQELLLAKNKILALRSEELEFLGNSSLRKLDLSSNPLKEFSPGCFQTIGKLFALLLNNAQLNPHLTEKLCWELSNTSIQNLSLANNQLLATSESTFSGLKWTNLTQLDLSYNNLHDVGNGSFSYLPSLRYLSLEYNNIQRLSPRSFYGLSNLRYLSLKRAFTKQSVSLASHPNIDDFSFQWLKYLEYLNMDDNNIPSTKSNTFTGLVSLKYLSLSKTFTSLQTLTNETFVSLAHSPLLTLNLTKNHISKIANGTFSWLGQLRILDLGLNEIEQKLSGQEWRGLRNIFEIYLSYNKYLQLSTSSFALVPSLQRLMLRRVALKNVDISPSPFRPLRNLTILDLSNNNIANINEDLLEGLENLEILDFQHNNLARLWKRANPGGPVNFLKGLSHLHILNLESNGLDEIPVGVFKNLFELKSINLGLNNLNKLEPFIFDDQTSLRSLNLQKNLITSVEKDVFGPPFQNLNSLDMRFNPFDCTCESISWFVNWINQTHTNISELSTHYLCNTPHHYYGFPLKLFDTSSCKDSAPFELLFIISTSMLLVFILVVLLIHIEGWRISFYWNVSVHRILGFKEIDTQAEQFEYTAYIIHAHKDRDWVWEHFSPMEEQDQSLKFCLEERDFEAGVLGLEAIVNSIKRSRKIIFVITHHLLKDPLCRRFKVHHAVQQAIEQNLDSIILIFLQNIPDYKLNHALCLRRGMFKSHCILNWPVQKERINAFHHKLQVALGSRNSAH

Regarding `Cc1cc2c(N)c3c(nc2n1CCCN(C)C)CCCCCC3` [ETI41], in data set [1], the concentration for half-maximal inhibition (IC50) (commonly the concentration at which inhibition is half-maximal) was determined as 993 nM. Also, in data set [2], the Body weight entry was “without significant differences”, the CD68 expression result is reported as “significantly decreased”, the Ear thickness result is “significantly decreased” and the Epidermal thickness entry was “significantly decreased”. For the same compound, in data set [2], the Ki-67 keratinocyte proliferation result was “significantly decreased” and the “Improvement of disease symptoms” value is reported as “comparable to or better than the anti-IL-17A antibody”. In data set [3], the “Inhibition of TLR1/TLR2 (TNF-α secretion)” value is given as “neither compound inhibited”. The “Inhibition of TLR2/TLR6 (TNF-α secretion)” value in data set [4] was “neither compound inhibited”.
Turning to `COc1ccc2c3c(N)c4c(nc3n(CCCN(C)C)c2c1)CCCC4` [ETI60], the half-inhibitory concentration (IC50) in data set [1] came out at 372 nM. For the same compound, in data set [2], the Body weight entry was “without significant differences”, the CD68 expression result is reported as “significantly decreased”, the Ear thickness result is on record as “significantly decreased” and the Epidermal thickness entry was “significantly decreased”. Also, in data set [2], the Ki-67 keratinocyte proliferation result is recorded as “significantly decreased” and the “Improvement of disease symptoms” value is given as “comparable to or better than the anti-IL-17A antibody”. Besides, the “Inhibition of TLR1/TLR2 (TNF-α secretion)” value in data set [3] was “neither compound inhibited”. Also, the “Inhibition of TLR2/TLR6 (TNF-α secretion)” value in data set [4] is listed as “neither compound inhibited”.

The values above are taken from PMC12508057, “Discovery of ETI41 and ETI60: novel selective endosomal Toll-like receptor inhibitors for the treatment of autoimmune diseases” (Experimental & Molecular Medicine, 2025).
